From ChEMBL document CHEMBL1201862, “PubChem BioAssay data set” (2004)
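Protocol summary: plate cells (96-well), add compound at 5 concentrations, incubate 48 h, interpolate endpoints linearly. Abbreviation: GI50, concentration required for 50% inhibition of growth.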 Active and inactive are the calls of the source. Rule as the data show it: active = GI50 up to about 1.1 µM and inactive = higher.

Columns and labels:
Experiment in all cases: growth of human tumour cells (NCI), 48 h
[1] = system: DU-145
[2] = system: TK-10
[3] = system: SN12C
[4] = system: OVCAR-5
[5] = system: A549
[6] = system: NCI-H522
[7] = system: CCRF-CEM
[8] = system: UACC-62
[9] = system: MCF7
[10] = system: U-251
[11] = system: M14
[12] = system: SF-295
[13] = system: RPMI-8226
[14] = system: A498
[15] = system: HCC 2998
[16] = system: IGROV-1
[17] = system: NCI-H23
[18] = system: SK-OV-3
[19] = system: HOP-62
[20] = system: HT-29

Measured: GI50

COc1ccc2c(=O)c3cc([N+](=O)[O-])ccc3n(C)c2c1
inactive: [1] > 100 µM | [2] > 100 µM | [3] > 100 µM | [4] > 100 µM | [5] > 100 µM | [6] > 100 µM | [7] > 100 µM | [8] > 100 µM | [9] > 100 µM | [10] > 100 µM | [11] > 100 µM | [12] > 100 µM | [13] > 100 µM | [14] > 100 µM | [15] > 100 µM | [16] > 100 µM

Cc1nn(C(=O)c2ccccc2O)c2c1C(c1ccc(O)cc1O)SC(=N)N2 (stereo not given)
inactive: [1] 8.28 µM | [2] > 10 µM | [3] 9.71 µM | [5] 4.76 µM | [7] 3.05 µM | [17] 3.98 µM | [18] 3.6 µM | [8] 1.89 µM | [10] 5.58 µM | [11] 3.61 µM | [12] > 10 µM | [13] 2.89 µM | [14] 3.61 µM | [16] 3.48 µM | [19] 3.02 µM | [20] > 10 µM
active: [4] 1.04 µM | [9] 0.472 µM

CC(O)(/C=C/c1ccccc1)P(=O)(O)c1ccccc1 (stereo not given)
inactive: [1] > 100 µM | [2] > 100 µM | [3] > 100 µM | [4] > 100 µM | [5] > 100 µM | [6] > 100 µM | [17] > 100 µM | [18] > 100 µM | [8] > 100 µM | [9] > 100 µM | [10] > 100 µM | [11] > 100 µM | [12] > 100 µM | [14] > 100 µM | [15] 47.2 µM | [16] > 100 µM | [19] > 100 µM | [20] > 100 µM

NC(Cc1c[nH]c2cc([N+](=O)[O-])ccc12)C(=O)O (stereo not given)
inactive: [1] > 100 µM | [2] > 100 µM | [3] > 100 µM | [4] > 100 µM | [5] > 100 µM | [6] > 100 µM | [17] > 100 µM | [18] > 100 µM | [8] > 100 µM | [9] > 100 µM | [10] > 100 µM | [11] > 100 µM | [12] > 100 µM | [13] > 100 µM | [14] > 100 µM | [16] 57.4 µM | [19] > 100 µM | [20] > 100 µM

CC1=NN(c2ccccc2)C(=O)C1/N=N/c1ccc([As](=O)(O)O)c(O)c1 (stereo not given)
inactive: [1] > 100 µM | [2] > 100 µM | [3] > 100 µM | [4] > 100 µM | [5] > 100 µM | [6] > 100 µM | [7] 25.4 µM | [17] > 100 µM | [18] > 100 µM | [8] > 100 µM | [9] > 100 µM | [10] > 100 µM | [11] > 100 µM | [12] > 100 µM | [13] 57 µM | [14] > 100 µM | [16] > 100 µM | [19] > 100 µM | [20] > 100 µM

CN(C)Cc1cc(C(=O)/C=C/c2ccc(Cl)c(Cl)c2)cc(CN(C)C)c1O
inactive: [1] 4.84 µM | [3] 2.25 µM | [4] 8.83 µM | [5] 2.39 µM | [6] 1.56 µM | [7] 1.89 µM | [17] 5.69 µM | [9] 2.48 µM | [10] 3.08 µM | [11] 2.02 µM | [12] 3.38 µM | [13] 1.99 µM | [14] 3.17 µM | [15] 3.4 µM | [16] 3.37 µM | [19] 2.24 µM | [20] 1.24 µM

COC(=O)C1=C2SCc3ccc(cc3)CSC3=C(C(=O)OC)SC(=C(S2)S1)S3
inactive: [1] > 100 µM | [2] > 100 µM | [3] > 100 µM | [5] > 100 µM | [18] > 100 µM | [8] > 100 µM | [9] > 100 µM | [10] > 100 µM | [11] > 100 µM | [12] 91.8 µM | [13] 33 µM | [14] > 100 µM | [15] > 100 µM | [19] > 100 µM

Cc1ccc(/C(O)=C/c2nc3ccccc3oc2=O)cc1
inactive: [1] > 100 µM | [2] > 100 µM | [3] > 100 µM | [4] > 100 µM | [5] > 100 µM | [6] 16.7 µM | [7] 12.8 µM | [17] 72.1 µM | [8] 37.7 µM | [9] 47.6 µM | [10] > 100 µM | [11] > 100 µM | [12] 59.6 µM | [14] 78.3 µM | [15] > 100 µM | [16] > 100 µM | [19] > 100 µM | [20] > 100 µM

OCC1OC(n2cnc3c2N=CNC[C@H]3O)C(Cl)C1O (stereo not given in full)
inactive: [1] > 100 µM | [2] > 100 µM | [3] > 100 µM | [4] > 100 µM | [5] > 100 µM | [6] > 100 µM | [7] > 100 µM | [17] > 100 µM | [8] > 100 µM | [9] > 100 µM | [10] > 100 µM | [11] > 100 µM | [12] > 100 µM | [13] > 100 µM | [14] > 100 µM | [15] > 100 µM | [16] > 100 µM | [19] > 100 µM | [20] > 100 µM

O=C1N/C(=N/N=C/c2ccccc2)N/C1=C\c1cccs1
inactive: [1] 18.5 µM | [2] 23.1 µM | [3] 19.1 µM | [4] 28.6 µM | [5] 25.6 µM | [6] 1.98 µM | [7] 13.3 µM | [17] 15.9 µM | [18] 18.6 µM | [8] 20.1 µM | [9] 9.84 µM | [10] 15.6 µM | [11] 29.3 µM | [12] 17.4 µM | [13] 16.8 µM | [14] 13 µM | [16] 14.5 µM | [19] 18.3 µM | [20] 19.1 µM

Nc1nc(=O)c2c([nH]1)NCC(CCNc1ccc(C(=O)O)cc1)N2 (stereo not given)
inactive: [1] > 100 µM | [2] > 100 µM | [3] > 100 µM | [4] > 100 µM | [5] > 100 µM | [6] > 100 µM | [7] > 100 µM | [17] > 100 µM | [18] > 100 µM | [8] > 100 µM | [9] > 100 µM | [10] > 100 µM | [11] > 100 µM | [12] > 100 µM | [13] > 100 µM | [14] > 100 µM | [16] > 100 µM | [19] > 100 µM | [20] > 100 µM

C=CCCCCCCCCC(=O)ON(Cc1ccc(O)c(OC)c1)C(=O)C(F)(F)F
inactive: [1] > 100 µM | [2] > 100 µM | [3] > 100 µM | [4] > 100 µM | [5] > 100 µM | [7] 10 µM | [17] > 100 µM | [18] > 100 µM | [8] 49 µM | [9] > 100 µM | [10] > 100 µM | [11] > 100 µM | [12] > 100 µM | [13] > 100 µM | [14] 44.1 µM | [15] > 100 µM | [16] > 100 µM | [19] > 100 µM | [20] > 100 µM

O=c1[nH]c(N/N=C\C(O)C(O)C(O)CO)nc2ccccc12 (stereo not given)
inactive: [1] > 100 µM | [2] > 100 µM | [3] > 100 µM | [4] > 100 µM | [5] > 100 µM | [7] > 100 µM | [17] > 100 µM | [18] > 100 µM | [8] > 100 µM | [9] > 100 µM | [10] > 100 µM | [11] > 100 µM | [12] > 100 µM | [13] > 100 µM | [14] > 100 µM | [16] > 100 µM | [19] > 100 µM | [20] > 100 µM

C=CCC1(O)C(=O)OC2C(O)COC21O (stereo not given)
inactive: [1] > 100 µM | [2] > 100 µM | [3] > 100 µM | [4] > 100 µM | [5] > 100 µM | [6] > 100 µM | [7] > 100 µM | [17] > 100 µM | [18] > 100 µM | [8] > 100 µM | [9] > 100 µM | [10] > 100 µM | [11] > 100 µM | [12] > 100 µM | [14] > 100 µM | [15] > 100 µM | [16] > 100 µM | [19] > 100 µM | [20] > 100 µM

C=CCOCn1cnc2c(N)ncnc21
inactive: [1] > 100 µM | [2] > 100 µM | [3] > 100 µM | [4] > 100 µM | [5] > 100 µM | [7] > 100 µM | [17] > 100 µM | [18] > 100 µM | [8] > 100 µM | [9] > 100 µM | [10] > 100 µM | [11] > 100 µM | [12] > 100 µM | [13] > 100 µM | [14] > 100 µM | [15] > 100 µM | [16] > 100 µM | [19] > 100 µM | [20] > 100 µM
